In experiment [1] the test system is 3T3-L1 adipocytes. The experiment in a line: myc-GLUT4-GFP translocation to the cell surface. Format: cell-based, mouse. To be noted: insulin 1 nM, 20 min. As for the experimental part: FIG. 2, panels A-C show knockdown of CDP138 in 3T3-L1 adipocytes inhibits insulin-stimulated glucose transport (A) and myc-GLUT4-GFP translocation (B), but not endogenous GLUT4 movement to the periphery detected in TIRF zone (C). (A): Differentiated adipocytes at day 5 were transfected with siRNAs against mouse 5730419I09Rik or the scrambled siRNA (Scr) as described earlier (Jiang et al., 2003) for 60 hrs, then serum starved overnight. Cells were then treated with or without insulin (1 nM and 100 nM) for 30 min for the glucose uptake assay, or 15 min for immunoblotting of CDP138, pAkt, Akt and β-actin. Glucose transport data are presented as mean±SD of 4 independent experiments. *P<0.05 vs Scr Insulin (1 nM) group; **P<0.01 vs Scr Insulin (100 nM) group. (B): Day 5 adipocytes were transfected with siRNAs and myc-GLUT4-GFP for 60 hrs and then serum starved overnight. Cells were then treated with insulin (1 nM) for 20 min. Cell surface Myc-GLUT4-GFP was detected with anti-myc monoclonal Ab (9E10) and Alexa Fluor 568-labeled goat anti-mouse IgG in non-permeablized cells. The Myc signal and GFP signal were quantified as previously described (Jiang et al., 2002). Data presented are representative microscopic images and mean±SD of about 160 GFP-positive cells in each group from three independent experiments. **P<0.01 vs Scr Insulin (1 nM) group. […] GLUT4 was detected with a goat anti-GLUT4 Ab and Alexa Fluor 488-conjugated donkey anti-goat Ab in permeabilized cells. Top and middle panels show 100 nm TIRF zone and representative GLUT4 TIRFM images, respectively. Data are mean±SD of 3 independent experiments. **P<0.01 vs Scr Insulin groups.
GLUT4 translocation detection with wide field fluorescence and TIRF microscopy: Both wide field and TIRF microscopy were used to detect myc-GLUT4-GFP translocation to the cell surface as previously described (Jiang et al., 2002) and herein.
To test the effect of RNAi-induced gene specific knockdown of CDP138 or overexpression of CDP138 mutants on GLUT4 translocation, siRNAs or CDP138 constructs were transfected into adipocytes together with myc-GLUT4-GFP by electroporation as previously described (Jiang et al, 2003). […] Cells were washed with cold PBS, fixed with 4% formaldehyde and immunostained. Briefly, for siRNA study, the cell surface Myc-GLUT4-GFP was visualized with mouse anti-Myc Ab (9E10) and AlexaFluoro568-labeled goat anti-mouse secondary Ab (Invitrogen) in PBS containing 1% FBS. After washing, the coverslip were mounted with Prolong antifade reagent (Invitrogen, Eugene Oreg.). Fluorescence microscopy was carried as described below. Then, images were acquired with wide field microscopy as described below. For the study with overexpressed HAtagged CDP138 constructs, the cell surface Myc-GLUT4-GFP was visualized with rabbit anti-Myc Ab (Cell signaling, Inc) and AlexaFluoro568-labeled goat anti-rabbit secondary Ab (InVitrogen) in PBS containing 1% FBS. Cells were further permeabilized with PSB containing 0.5% Tween-20, and HA-tagged protein was detected with a mouse anti-HA epitope primary Ab followed by AlexaFluoro-350-labelled goat anti-mouse IgG. Insulin-induced myc-GLUT4 accumulation (AlexaFluoro-568 signal) within the evanescence excitation field (100 nm from dorsal membrane) in transfected adipocytes was measured with a Nikon Eclipse-Ti microscope equipped with a CoolSNAP HQ2 camera and laser scanning TIRF capacity. Total GLUT4-GFP signals and […] Alexa Fluoro-350 signals were acquired with wide field imaging to identify double-transfected cells. The ratio of myc-GLUT4 signal in the TIRF zone to the total Epi-GFP signal in wide field was used as a measure of GLUT4 translocation to the cell surface.
Image Analysis and Quantification: TIRF and wide field fluorescence microscopy were performed using a Nikon inverted microscope (Melville, N.Y.) with a cooled charge-coupled device camera. […]

Experiment [2] deals with 3T3-L1 adipocytes. The experiment in a line: Endogenous GLUT4 accumulation in the TIRF zone (fixed adipocytes). Format: cell-based, mouse. The settings on record: 100 nM insulin; scrambled siRNA. As for the experimental part:
FIG. 2, panels A-C show knockdown of CDP138 in 3T3-L1 adipocytes inhibits insulin-stimulated glucose transport (A) and myc-GLUT4-GFP translocation (B), but not endogenous GLUT4 movement to the periphery detected in TIRF zone (C). (A): Differentiated adipocytes at day 5 were transfected with siRNAs against mouse 5730419I09Rik or the scrambled siRNA (Scr) as described earlier (Jiang et al., 2003) for 60 hrs, then serum starved overnight. Cells were then treated with or without insulin (1 nM and 100 nM) for 30 min for the glucose uptake assay, or 15 min for immunoblotting of CDP138, pAkt, Akt and β-actin. […] Cell surface Myc-GLUT4-GFP was detected with anti-myc monoclonal Ab (9E10) and Alexa Fluor 568-labeled goat anti-mouse IgG in non-permeablized cells. The Myc signal and GFP signal were quantified as previously described (Jiang et al., 2002). […] GLUT4 was detected with a goat anti-GLUT4 Ab and Alexa Fluor 488-conjugated donkey anti-goat Ab in permeabilized cells. […] We also quantified endogenous GLUT4 redistribution to the PM using total internal reflection fluorescence microscopy (TIRFM) with a setting of about 100 nm distance from the coverslip (FIG. 2C, top panel). For this experiment, endogenous GLUT4 was detected by immunofluorescent staining with a goat anti-GLUT4 Ab that recognizes the cytoplasmic C-terminus of GLUT4. […]

On to insulin, for which the “increase in GLUT4 translocation (cell surface myc / total GFP)” value in the experiment on 3T3-L1 adipocytes [1] stood at 3 fold. Further, the “enhancement of GLUT4 signal in the TIRF zone” value with 3T3-L1 adipocytes [2] is “about 2.5 fold”.

Source of the values: US20120204273A1, “COMPOSITIONS RELATING TO A PHOSPHOPROTEIN AND METHODS OF USE” (SANFORD-BURNHAM MEDICAL RESEARCH INSTITUTE, priority 2010, published 2012).
